Measured values: patent publication US20200385398A1, “NEW BICYCLIC DERIVATIVES” (Elanco Tiergesundheit AG, priority 2019, published 2020)

Test system: D. immitis microfilariae
Test: Dog heart worm microfilariae motility assay
Type: cell-based
Conditions: Dirofilaria immitis, read-out: EC50 (motility inhibition)

O=C(NN1CCOc2ccccc21)c1cnc2c(-c3cc(F)cc(F)c3F)cccc2c1N1CCSCC1 [Example 5.10, N-(2,3-dihydro-1,4-benzoxazin-4-yl)-4-thiomorpholino-8-(2,3,5-trifluorophenyl)quinoline-3-carboxamide]
EC50: < 0.1 µg/mL
